Source: paper PMC11587516 (ACS Chemical Neuroscience, 2024)
Where two headings read alike, the source gives them in different places.

Assays:
[1] = tested on: SH-SY5Y neuroblastoma cells; conditions: 1 mM MPP+, 24 h
Protocol: The model used mimics certain aspects of neurodegenerative diseases, where GABAergic dysfunction and neuronal death are prominent features. […] The neuroprotection studies were performed to determine the ability of compound 9 to prevent MPP^+ (1-methyl-4-phenylpyridinium) toxicity at a concentration of 1 mM, which was coincubated with compound 9 for 24 h. MPP^+ is a well-established neurotoxin that selectively damages neurons, making it a commonly used agent to model aspects of neurodegenerative conditions in vitro. It induces oxidative stress and mitochondrial dysfunction, leading to cell death. Cell viability was detected by a standard MTS assay.
Neuroprotection studies were performed according to the procedure described previously.[27] In brief, SH-SY5Y CRL-2266 (American Type Culture Collection, Manassas, VG) were seeded in microplate at a concentration of 2.5 × 10^4 cells/well in 100 μL of culture medium and cultured for 24 h at 37 °C and 5% CO2. […] Next, MPP^+ was added at a final concentration of 1 mM and the cells were placed in the incubator. After 24 h of the compound coincubation with MPP^+, the CellTiter 96 AQueous Nonradioactive Cell Proliferation Assay (MTS) was performed. The test was purchased from Promega (Madison, WI). The absorbance was measured using a microplate reader EnSpire (PerkinElmer, Waltham, MA) at 490 nm. All results were shown as mean ± SD. The statistical significances were calculated by GraphPad Prism 6.0 software.

[2] = tested on: normal human astrocytes (NHA); experiment: Confocal imaging of astrocyte morphology after incubation in PBS (non-GABA conditions); type: cell-based; conditions: 500 μM in PBS, non-GABA environment; 72 h
Protocol: To this end, we tested whether blocking the transport of GABA under experimental non-GABA extracellular conditions may impair the homeostasis of these cells. […] Afterward, the cells were stained to visualize actin filaments using confocal microscopy. […] Nevertheless, further kinetic studies are necessary to verify this hypothesis.
NHA was grown on a coverslip in a 35 mm culture dish. After treatment, the cells were fixed (4% paraformaldehyde) and permeabilized (0.1% Triton X-100). Then, the samples were stained with Phalloidin-Atto 565 (Sigma-Aldrich, Inc.) according to the manufacturer’s protocol. Laser confocal microscope Nikon Eclipse Ti-E A1R-Si and Nikon NIS Elements AR software were used for cell imaging.

hGAT2 = biological target: T1, hGAT2 (Homo sapiens, UniProt Q9NSD5); experiment: [3H]GABA uptake assay, CHO cells stably expressing hGAT2; type: cell-based
T1 construct: expressed in transfected cells
T1 sequence (Q9NSD5 1-602): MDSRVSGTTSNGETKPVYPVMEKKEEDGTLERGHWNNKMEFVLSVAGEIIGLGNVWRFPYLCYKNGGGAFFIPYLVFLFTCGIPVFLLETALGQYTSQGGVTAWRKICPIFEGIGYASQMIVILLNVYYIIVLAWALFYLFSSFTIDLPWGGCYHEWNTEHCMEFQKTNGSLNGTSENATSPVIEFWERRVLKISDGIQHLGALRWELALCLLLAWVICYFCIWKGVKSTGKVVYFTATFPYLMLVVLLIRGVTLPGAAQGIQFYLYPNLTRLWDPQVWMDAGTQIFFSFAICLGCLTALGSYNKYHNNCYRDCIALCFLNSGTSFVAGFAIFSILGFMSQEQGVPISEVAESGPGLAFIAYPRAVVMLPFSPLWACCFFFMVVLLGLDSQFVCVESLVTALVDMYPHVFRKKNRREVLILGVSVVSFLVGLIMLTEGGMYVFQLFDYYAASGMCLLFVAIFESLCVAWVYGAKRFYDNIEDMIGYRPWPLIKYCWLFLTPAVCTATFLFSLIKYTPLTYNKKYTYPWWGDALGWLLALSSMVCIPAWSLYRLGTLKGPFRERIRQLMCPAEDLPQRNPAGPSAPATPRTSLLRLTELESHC

GABAA receptors = experiment: GABAA receptor [3H]-muscimol radioligand binding assay, rat cortical membranes; conditions: rat cortex
Protocol: A 10 mM stock solution of the tested compound was prepared in DMSO. Serial dilutions of the compound were prepared in 96-well microplates in assay buffers using automated pipetting system epMotion 5070 (Eppendorf). Each compound was tested in 8 concentrations from 10^–3 to 10^–10 M (final concentration). Radioligand binding was performed using tissue rat cortex according to the previous procedure.[22] All assays were carried out in duplicates. 50 μL of working solution of the tested compounds, 50 μL of [^3H]-muscimol (final concentration 2.0 nM), and 150 μL of tissue suspension prepared in assay buffer (50 mM Tris-HCl, pH 7.4) were transferred to polypropylene 96-well microplate using 96-well pipetting station Rainin Liquidator (Mettler-Toledo). […] The microplate was covered with sealing tape, mixed, and incubated for 15 min at 4 °C. The reaction was terminated by rapid filtration through GF/B filter mate. Ten rapid washes with 200 μL of 50 mM Tris buffer (4 °C, pH 7.4) were performed using 96-well FilterMate harvester (PerkinElmer). The filter mates were dried at 37 °C in forced air fan incubator and then solid scintillator MeltiLex was melted on filter mates at 90 °C for 4 min. The radioactivity on the filter was measured in MicroBeta TriLux 1450 scintillation counter (PerkinElmer). […]

hGAT1 = biological target: T2, hGAT1 (Homo sapiens, UniProt P30531); experiment: [3H]GABA uptake assay, CHO cells stably expressing hGAT1; type: cell-based
T2 construct: expressed in transfected cells
T2 sequence (P30531 whole entry): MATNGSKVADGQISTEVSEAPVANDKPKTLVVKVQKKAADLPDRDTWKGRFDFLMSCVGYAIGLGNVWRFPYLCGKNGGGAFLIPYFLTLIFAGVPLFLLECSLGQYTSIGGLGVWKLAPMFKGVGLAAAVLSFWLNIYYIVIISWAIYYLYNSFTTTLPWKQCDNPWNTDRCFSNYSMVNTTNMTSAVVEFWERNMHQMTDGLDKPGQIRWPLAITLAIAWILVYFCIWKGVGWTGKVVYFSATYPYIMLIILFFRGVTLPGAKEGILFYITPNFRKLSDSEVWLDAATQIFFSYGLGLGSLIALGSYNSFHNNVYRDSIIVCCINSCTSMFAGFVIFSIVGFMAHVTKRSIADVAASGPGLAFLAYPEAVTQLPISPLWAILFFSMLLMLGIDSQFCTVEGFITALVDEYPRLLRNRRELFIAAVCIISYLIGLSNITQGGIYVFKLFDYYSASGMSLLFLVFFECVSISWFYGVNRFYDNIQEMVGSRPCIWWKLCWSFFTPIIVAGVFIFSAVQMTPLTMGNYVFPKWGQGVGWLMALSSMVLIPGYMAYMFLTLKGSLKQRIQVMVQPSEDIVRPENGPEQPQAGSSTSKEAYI

## NC12CC(C(=O)O)(C1)C2 [Compound 9]
[1]; 10 μM
  cell viability compared to MPP+ alone: increased cell viability
[1]; 50 μM
  cell viability compared to MPP+ alone: significantly increased cell viability
[2]
  astrocyte morphology (actin staining): cell shrinkage and a loss of cell-to-cell contact
hGAT2
  IC50: > 100 µM
hGAT2; CHO, read-out: inhibition of GABA uptake
  inhibition at 100 µM: ~25%
GABAA receptors; 100 μM
  displacement of [3H]-muscimol: 4%
GABAA receptors; [3H]-muscimol 2.0 nM
  Ki ± SEM: no affinity ^a
hGAT1
  IC50: > 100 µM
hGAT1; 100 μM, CHO cells
  inhibitory effect on [3H]GABA uptake: no inhibitory effect
